The record followed here is patent publication US9944986B2, “Therapeutic targets for Alzheimer's disease” (The University of Birmingham, priority 2012, dated 2018).

Assay [1] concerns brain. Kind of assay: MSI imaging of brain sections (phosphatidylcholines, choline, creatine). Format: in vivo. The settings on record: SD rats, rapamycin 0.2 mg/kg i.p., ketamine 30 mg/kg i.p. On the procedure: (§1) There were three animals (n=3) in each group. Animals were sacrificed and the brain removed and frozen for imaging studies.
All MSI imaging experiments were performed on a Bruker ultrafleXtreme TOF/TOF mass spectrometer. For matrix evaluation, 4 serial sections of thickness 10 μm from sham control brain S2 were acquired using a Leica CM 1850 Cryostat and subsequently thaw mounted onto an ITO coated glass slide. Each section in turn was coated with 15 mL of 20 mg mL^−1 of CHCA in CH3OH, 0.1% TFA) using an artist airbrush while the remaining 2 sections were covered. Data were collected over the mass range m/z 60-1400. MSI experiments of a single section from each group (Rapa, Ket and Control) were conducted. […]. Images were acquired with a pixel size of 100 μm×100 μm.

The test system of assay [2] is brain. Put plainly: T2 weighted MRI of brain after mTOR inhibition/activation. The class given is in vivo. The settings on record: SD rats; rapamycin 0.2 mg/kg i.p., ketamine 30 mg/kg i.p.; n=3.
Source text: as §1

Take `CNC1(c2ccccc2Cl)CCCCC1=O` (stereo not shown) [ketamine]: the “phosphatidylcholine species in the brain (ion images) relative to control” value in the assay with brain [1] is on record as “clear differences induced by mTOR inhibition or activation”. Further, in the assay on brain [1] (vs control), the “choline levels in the brain” value is recorded as “measureable changes” and the “creatine levels in the brain” value is reported as “measureable changes”. The “T2 weighted MRI images versus control animals” value in the assay on brain [2] is given as “clear differences in the T2 weighted MRI images”.
